According to PubChem BioAssay (NCI):
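Following 48 hours of exposure in 96-well plates, responses at five concentrations were used to interpolate endpoints linearly. TGI: concentration producing complete growth inhibition.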

Tests used:
Assay in all cases: NCI-60 cell line screen, 48 h
M14 melanoma = tested on: M14 melanoma
SF-268 CNS = tested on: SF-268 CNS
MOLT-4 leukemia = tested on: MOLT-4 leukemia
SNB-75 CNS = tested on: SNB-75 CNS
OVCAR-3 ovarian = tested on: OVCAR-3 ovarian
A498 renal = tested on: A498 renal
UACC-62 melanoma = tested on: UACC-62 melanoma
OVCAR-8 ovarian = tested on: OVCAR-8 ovarian
SW-620 colon = tested on: SW-620 colon
SR leukemia = tested on: SR leukemia
K-562 leukemia = tested on: K-562 leukemia

SMILES	TGI (M14 melanoma) [µM]	TGI (SF-268 CNS) [µM]	TGI (MOLT-4 leukemia) [µM]	TGI (SNB-75 CNS) [µM]	TGI (OVCAR-3 ovarian) [µM]	TGI (A498 renal) [µM]	TGI (UACC-62 melanoma) [µM]	TGI (OVCAR-8 ovarian) [µM]	TGI (SW-620 colon) [µM]	TGI (SR leukemia) [µM]	TGI (K-562 leukemia) [µM]
O=C1C(NCCN2CCOCC2)=C(Cl)C(=O)c2ncccc21	1.73	3.37	5.69	2.35	5.48	3.98	2.17	1.9	1.01	3.3	–
CCCCCCC(C)OC(=O)/C=C(\CC(=O)OC(C)CCCCCC)C(=O)OC(C)CCCCCC (configuration not stated)	> 100	> 100	> 100	> 100	> 100	> 100	> 100	> 100	> 100	–	–
C#CCn1c(=O)c(Cl)cn(/C(=C/C(=O)OCC)C(=O)OCC)c1=O	22.8	51.1	> 23.9	34.2	11.7	40.8	29.8	12.9	5.46	–	7
c1ccc(C2=NCCc3cc4c(cc32)OCO4)cc1	> 100	> 100	–	–	> 100	> 100	> 100	> 100	> 100	> 100	–
CC(C)C1CC[C@H](C)C[C@@H]1OC(=O)C(C(=O)O[C@H]1C[C@@H](C)CCC1C(C)C)C(O)[C@@H]1OC(C)(C)O[C@H]1C1COC(C)(C)O1 (some centres not stated)	37.8	42.7	42.8	53	36.2	–	40.5	47.2	35.7	34.9	32.2
CCN(CC)CCCOc1cc2c(cc1OC)C(=O)N1CCC[C@H]1C=N2	> 100	> 100	50.2	–	50	92.4	54.3	> 100	33.2	> 100	> 100
O=C1c2ccccc2C(=O)c2c(O)ccc(O)c21	> 100	> 100	> 100	> 100	94.1	> 100	> 100	> 100	> 100	–	> 100
CC(=O)NC(Cc1ccc(OP(=O)(OCc2ccc([N+](=O)[O-])o2)N(C)CCCCCl)cc1)C(=O)NC(C)c1ccc(OCC2CCCCC2)c(C(N)=O)c1 (configuration not stated)	5.49	6.48	26.3	–	5.04	35.4	5.34	21.8	14.2	6.42	> 100
CC(=O)OCC1=C(C)C[C@H]([C@@H](COC(C)=O)C2CCC3C4C[C@H]5O[C@]56CC=CC(=O)[C@]6(C)C4CC[C@@]32C)OC1=O (some centres not stated)	0.785	6.78	0.233	6.09	0.553	1.64	0.976	0.714	0.322	0.123	–
COC(=O)c1cc(C(=CCC[C@H]2CC[C@@]3(C)C(CCC4C3CC[C@@]3(C)C4CC[C@@H]3C(C)CCCC(C)C)C2)c2cc(Cl)c(OC(=O)c3ccccc3)c(C(=O)OC)c2)cc(Cl)c1OC(=O)c1ccccc1 (some centres not stated)	> 10	> 10	> 10	> 10	> 10	–	> 10	> 10	> 10	> 10	> 10
